Source: patent US20110086759A1, “CHEMICAL COMPOUNDS” (SYNGENTA CROP PROTECTION, INC., priority 2007, published 2011)

Experiments:
Assay type in all cases: in vivo
[1] = test system: Amaranthus retoflexus (AMARE); assay: Pre-emergence biological efficacy, glasshouse pot test; settings: Amaranthus retroflexus, 312 h; pre-emergence, rate 1,000 g/ha, evaluated after 13 days (100=total damage to plant; 0=no damage); read-out: Percentage damage caused to weed species, AMARE
In short: (§1)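 Damage was rated on a 0–100 scale 13 days after treatment, with plants kept at 24/16° C, 14 h light and 65% humidity. The pre-emergence spray, at 1000 or 250 g/ha in acetone/water 50:50 with 0.5% Tween 20, was applied one day after sowing.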

Solanum nigrum (SOLNI) [2] = assay: as above; settings: 312 h, pre-emergence, rate 1,000 g/ha, evaluated after 13 days (100=total damage to plant; 0=no damage), read-out: Percentage damage caused to weed species, SOLNI
In short: as §1

Setaria faberi (SETFA) [3] = assay: as above; settings: 312 h, pre-emergence, rate 1,000 g/ha, evaluated after 13 days (100=total damage to plant; 0=no damage), read-out: Percentage damage caused to weed species, SETFA
In short: as §1

[4] = test system: Alopecurus myosuroides (ALOMY); assay: as above; settings: 312 h, pre-emergence, rate 1,000 g/ha, evaluated after 13 days (100=total damage to plant; 0=no damage), read-out: Percentage damage caused to weed species, ALOMY
In short: as §1

[5] = test system: Echinochloa crus-galli (ECHCG); assay: as above; settings: 312 h, pre-emergence, rate 1,000 g/ha, evaluated after 13 days (100=total damage to plant; 0=no damage), read-out: Percentage damage caused to weed species, ECHCG
In short: as §1

[6] = test system: Ipomea hederaceae (IPOHE); assay: as above; settings: Ipomoea hederacea, 312 h; pre-emergence, rate 1,000 g/ha, evaluated after 13 days (100=total damage to plant; 0=no damage); read-out: Percentage damage caused to weed species, IPOHE
In short: as §1

[7] = test system: Amaranthus retoflexus (AMARE); assay: Post-emergence biological efficacy, glasshouse pot test; settings: Amaranthus retroflexus, 312 h; Rate 1,000 g/ha; post-emergence spray; evaluated after 13 days (100=total damage to plant; 0=no damage to plant); read-out: Percentage damage caused to weed species, post-emergence, AMARE
In short: (§2)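 Scored 13 days after spraying on a 0 (no damage) to 100 (total damage) scale. Treatment was a post-emergence spray at 1000 or 250 g/ha, from acetone/water 50:50 plus 0.5% Tween 20, onto 8-day-old plants in soil pots. Growth at 24/16° C, 14 h photoperiod, 65% humidity, watered twice daily.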

Solanum nigrum (SOLNI) [8] = assay: as above; settings: 312 h, Rate 1,000 g/ha, post-emergence spray, evaluated after 13 days (100=total damage to plant; 0=no damage to plant), read-out: Percentage damage caused to weed species, post-emergence, SOLNI
In short: as §2

Setaria faberi (SETFA) [9] = assay: as above; settings: 312 h, Rate 1,000 g/ha, post-emergence spray, evaluated after 13 days (100=total damage to plant; 0=no damage to plant), read-out: Percentage damage caused to weed species, post-emergence, SETFA
In short: as §2

[10] = test system: Alopecurus myosuroides (ALOMY); assay: as above; settings: 312 h, Rate 1,000 g/ha, post-emergence spray, evaluated after 13 days (100=total damage to plant; 0=no damage to plant), read-out: Percentage damage caused to weed species, post-emergence, ALOMY
In short: as §2

[11] = test system: Echinochloa crus-galli (ECHCG); assay: as above; settings: 312 h, Rate 1,000 g/ha, post-emergence spray, evaluated after 13 days (100=total damage to plant; 0=no damage to plant), read-out: Percentage damage caused to weed species, post-emergence, ECHCG
In short: as §2

[12] = test system: Ipomea hederaceae (IPOHE); assay: as above; settings: Ipomoea hederacea, 312 h; Rate 1,000 g/ha; post-emergence spray; evaluated after 13 days (100=total damage to plant; 0=no damage to plant); read-out: Percentage damage caused to weed species, post-emergence, IPOHE
In short: as §2

SMILES	pest or weed control at 1000 g/ha [1]	pest or weed control at 1000 g/ha (Solanum nigrum (SOLNI) [2])	pest or weed control at 1000 g/ha (Setaria faberi (SETFA) [3])	pest or weed control at 1000 g/ha [4]	pest or weed control at 1000 g/ha [5]	pest or weed control at 1000 g/ha [6]	pest or weed control at 1000 g/ha [7]	pest or weed control at 1000 g/ha (Solanum nigrum (SOLNI) [8])	pest or weed control at 1000 g/ha (Setaria faberi (SETFA) [9])	pest or weed control at 1000 g/ha [10]	pest or weed control at 1000 g/ha [11]	pest or weed control at 1000 g/ha [12]
COC(=O)c1nc(-c2ccc(F)cc2)nc(NCc2ccco2)c1Cl [Compound 242-48, 5-Chloro-2-(4-fluorophenyl)-4-(furan-2-yl-methyl-amino)-6-methoxy-carbonylpyrimidine]	100%	20%	0%	10%	0%	20%	100%	50%	20%	20%	20%	60%
COC(=O)c1nc(-c2ccc(F)c(OC)c2)nc(NCc2ccco2)c1Cl [Compound 243-48, 5-Chloro-2-(4-fluoro-3-methoxyphenyl)-4-(furan-2-yl-methyl-amino)-6-methoxy-carbonylpyrimidine]	60%	10%	40%	10%	0%	0%	100%	60%	60%	10%	40%	10%
COC(=O)c1nc(-c2ccc(F)c(C(F)(F)F)c2)nc(NCc2ccco2)c1Cl [Compound 244-48, 5-Chloro-2-(4-fluoro-3-trifluoromethyl-phenyl)-4-(furan-2-ylmethylamino)-6-methoxycarbonyl-pyrimidine]	10%	30%	60%	30%	20%	0%	50%	80%	80%	30%	60%	30%
COC(=O)c1nc(-c2ccc(F)c(Cl)c2)nc(NCc2ccco2)c1Cl [Compound 245-48, 5-Chloro-2-(3-chloro-4-fluorophenyl)-4-(furan-2-yl-methyl-amino)-6-methoxy-carbonylpyrimidine]	80%	10%	30%	30%	30%	20%	100%	90%	70%	20%	40%	60%
COC(=O)c1nc(-c2ccc(F)c(F)c2F)nc(NCc2ccco2)c1Cl [Compound 247-48, 5-Chloro-4-(furan-2-ylmethylamino)-6-methoxycarbonyl-2-(2,3,4-trifluoro-phenyl)pyrimidine]	90%	40%	20%	10%	10%	40%	100%	90%	40%	30%	60%	60%
